# Results reported in patent publication US10238642B2, “Methods for treating neurogenic orthostatic hypotension” (Theravance Biopharma R&D IP, LLC, priority 2016, dated 2019).
# Key:
# [1] = Rat oral pharmacokinetics, one-compartment model; format: in vivo; conditions: estimate (% CV)
# Method: Adult male Sprague Dawley rats (Charles River) were housed under controlled laboratory conditions (temperature at 21±1° C.) on a 12:12 hour light-dark cycle. Animals were given free access to food and water upon arrival to the facility and animals were acclimatized to their holding room for at least 48 hours. Animals were fasted but allowed free access to water for 15-18 hours prior to dosing.
# Rats (n=6/timepoint/dose level) received a single oral dose of 4-[2-(2,4,6-trifluorophenoxymethyl)phenyl]piperidine (0.3, 1, 5, 10, 30, and 60 mg/kg) and were euthanized by decapitation at specified time points (0.5, 2, 4, 6, and 8 hr for 5 mg/kg dose level; 2 hr for 0.3, 1, 10, 30, and 60 mg/kg dose levels) post-administration. Spinal cords were dissected for ex vivo transporter occupancy and PK assessments from the same animals. The spinal cord was harvested by hydraulic extrusion using phosphate-buffered saline, and the lumbar segment dissected and frozen on dry ice. The remaining spinal cord segments were collected and homogenized in water (25% w/w) for PK analysis. All samples were stored at −80° C. until analysis.
# A kinetic radioligand binding assay was used to determine NET and SERT occupancy in rat spinal cord, as described previously in Bourdet et al., J. Pharm. Exp. Ther. (2012) 341:137-145. PK/PD parameters were estimated by a compartmental modeling approach (WinNonlin Version 5.0.1, Pharsight Corporation). One- and two-compartment PK models with first-order absorption and elimination were evaluated. The one-compartment model was selected. The pharmacodynamics model was an effect compartment Emax model linked directly to the central PK compartment (WinNonlin PK Model 3, PD Model 101). Selection of models was based upon best fit in terms of visual inspection, Akaike Information Criteria, and weighted residual sum of squares using the Gauss-Newton minimization method.
# CYP2D6 = CYP2D6 (Homo sapiens, UniProt P10635); conditions: cited from earlier work
# CYP2D6, sequence (P10635 whole entry): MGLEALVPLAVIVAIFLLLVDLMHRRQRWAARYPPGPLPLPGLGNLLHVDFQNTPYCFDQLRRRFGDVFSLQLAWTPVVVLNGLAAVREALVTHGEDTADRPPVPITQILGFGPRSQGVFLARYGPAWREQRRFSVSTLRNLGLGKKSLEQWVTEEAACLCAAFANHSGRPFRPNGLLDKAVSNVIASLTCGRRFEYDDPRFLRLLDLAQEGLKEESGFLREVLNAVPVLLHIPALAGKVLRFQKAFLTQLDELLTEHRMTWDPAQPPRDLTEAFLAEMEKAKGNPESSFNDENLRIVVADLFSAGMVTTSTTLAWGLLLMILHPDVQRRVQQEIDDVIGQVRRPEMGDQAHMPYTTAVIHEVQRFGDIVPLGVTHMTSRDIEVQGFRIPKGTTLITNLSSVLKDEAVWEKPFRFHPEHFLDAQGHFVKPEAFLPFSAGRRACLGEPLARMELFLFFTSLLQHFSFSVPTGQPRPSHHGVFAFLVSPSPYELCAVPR
# CYP3A4 = CYP3A4 (Homo sapiens, UniProt P08684); conditions: cited from earlier work
# CYP3A4, sequence (P08684 whole entry): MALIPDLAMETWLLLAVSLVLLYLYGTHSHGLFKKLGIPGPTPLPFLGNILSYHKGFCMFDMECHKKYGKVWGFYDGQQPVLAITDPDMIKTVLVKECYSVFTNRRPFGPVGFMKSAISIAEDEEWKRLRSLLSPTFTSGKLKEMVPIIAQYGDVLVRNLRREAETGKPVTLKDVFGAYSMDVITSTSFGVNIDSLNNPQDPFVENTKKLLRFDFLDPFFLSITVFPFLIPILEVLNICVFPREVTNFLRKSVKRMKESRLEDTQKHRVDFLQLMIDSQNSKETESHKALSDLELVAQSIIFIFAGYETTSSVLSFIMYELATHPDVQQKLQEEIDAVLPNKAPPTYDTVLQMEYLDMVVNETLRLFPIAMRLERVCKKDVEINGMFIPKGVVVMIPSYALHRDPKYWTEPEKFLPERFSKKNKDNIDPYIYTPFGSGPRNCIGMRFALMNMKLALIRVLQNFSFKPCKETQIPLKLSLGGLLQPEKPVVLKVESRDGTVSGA
# anesthetized rats = experiment: Cardiovascular model in anesthetized rat: intrinsic effect on MAP and HR; format: in vivo; conditions: IP
# Method: These studies were conducted to assess the effect of a single administration of 4-[2-(2,4,6-trifluorophenoxymethyl)phenyl]piperidine on heart rate (HR) and mean arterial pressure (MAP) in anesthetized rats.
# Normotensive male Sprague-Dawley rats weighing between 250-350 g were anesthetized with an intraperitoneal injection (IP) of thiobutabarbital (Inactin). All animals were kept under complete anesthesia (i.e., absence of response to toe pinch test) for the surgery and for the duration of the study. The right common carotid artery and jugular vein were isolated and catheterized. The trachea was intubated to keep the airway open during the study. After completion of surgery, the arterial catheter was connected to a pressure transducer and baseline blood pressure [Systolic (SBP), Mean Arterial (MAP) and Diastolic (DBP)] and heart rate (HR) were recorded using the Notocord-HEM data acquisition system. Following at least 60 min of baseline (i.e., the last 10 min was stable), vehicle (10% Tween20, 2 mL/kg, IP) was administered and any potential effect was monitored for at least 10 min. After this period, rats were injected with either vehicle or 4-[2-(2,4,6-trifluorophenoxymethyl)phenyl]piperidine ([…], 2 mL/kg, IP) and changes in MAP and HR were monitored for 25 min. […]
structure (smiles),measurement,setting,value
"Fc1cc(F)c(OCc2ccccc2C2CCNCC2)c(F)c1 [4-[2-(2,4,6-trifluorophenoxymethyl)phenyl]piperidine]",V/F (volume of the central compartment divided by oral bioavailability),[1],54.8 (66) L/kg
same,k01 (first-order absorption rate constant),[1],0.777 (108) hr^−1
same,k10 (elimination rate constant from the central compartment),[1],0.319 (81) hr^−1
same,reduction of metabolism by chemical inhibition of CYP2D6,CYP2D6,7%
same,reduction of metabolism by chemical inhibition of CYP3A4,CYP3A4,34%
same,HR EC25 (free plasma concentration that produced a change in HR of 25 bpm),anesthetized rats,8.6 nM
same,MAP EC10 (free plasma concentration that produced a change in MAP of 10 mm Hg),anesthetized rats,101.4 nM
